US20190315711A1 (eXIthera Pharmaceuticals, Inc., priority 2016, published 2019)
Values after ≈ are worked out from the molar mass of the structure shown.

Assays:
Factor Xa = molecular target: T1, Factor Xa (Homo sapiens, UniProt P00742); test: Dose response assay for protease inhibitors: Factor Xa; type: biochemical; conditions: ratio versus Factor XIa
T1 construct: Factor Xa; 0.2 μM in 50% glycerol (9.2 μg/mL)
Procedure: (§1) • Assay buffer: 20 mM Hepes, pH 7.4; 150 mM NaCl; 0.02% Tween 20 • Compounds: 10 mM stocks in DMSO • Substrate: 20 mM Glp-Pro-Arg-AMC, 25 mg/2.3 mL H2O (store at +4° C.) [Factor XIa, thrombin, and trypsin] • 20 mM Pro-Phe-Arg-AMC (Bachem I-1295), 25 mg/2.2 mL H2O or Boc-Leu-Gly-Arg-AMC (Bachem I-1105), 25 mg/2.07 mL H2O (store at +4° C.) [Factor Xa] • Enzyme: Factor XIa; 0.25 M in 50% glycerol (20 μg/mL) • Trypsin; 0.2 μM in 50% glycerol (4.8 μg/mL) • Thrombin; 0.2 μM in 50% glycerol (7.34 μg/mL) • Factor Xa; 0.2 μM in 50% glycerol (9.2 μg/mL)
(§2) • 1. Dilute the substrate to 100 μM in assay buffer (30 μL/6 mL). The enzyme is diluted to 0.5 nM just prior to use (12 L/6 mL for Factor XIa; 15 μL/6 mL for all of the rest.) • 2. Pipette 50 μL of substrate into each well of the 96 well (12×8) microtiter plate. (Column 1 is used as the 100% activity control and receives no compound, and Column 12 is the blank and receives no enzyme.) Add an additional 46 μL to column 2. • 3. Pipette 4 μL of each compound into the appropriate well in column 2 of the plate (unknowns assayed in triplicate, standard assayed in duplicate). The final compound concentration will be 1/50th of the stock. • 4. Serially two-fold dilute the compound by mixing the sample in column 2, removing 50 μL to the next well (column 3), mix and remove to column 4, etc. until column 11. After mixing column 11, remove 50 μL and discard. • 5. Pipette 50 μL of buffer into column 12. Initiate the reaction by adding 50 μL of enzyme solution to each well of columns 1-11 as rapidly as possible. • 6. Read the plate in a spectrophotometer (SpectraMax) at 30° C., wherein each well is measured every 60 s for 30 min. For Factor Xa assays, each well is measured every 1 min for a total of 60 min. • 7. For Factor XIa assays, the compounds are assayed, in duplicate, at 3 different starting concentrations, 20, 2, and 0.2 μM; 1:10, 1:100, and 1:1000 dilution of 10 mM stock or at 2, 0.2, and 0.02 μM; 1:100, 1:1000, and 1:10,000 dilution of 10 mM stock. Data for each concentration are combined for graphing and data fitting. • 8. Data can be used both for estimation of IC50 and for estimation of Kon.

Thrombin = molecular target: T2, Thrombin (Homo sapiens, UniProt P00734); test: Dose response assay for protease inhibitors: thrombin; type: biochemical; conditions: ratio versus Factor XIa
T2 construct: Thrombin; 0.2 μM in 50% glycerol (7.34 μg/mL)
Procedure: as §1, §2

Trypsin = molecular target: T3, Trypsin (Bos taurus, UniProt P00760); test: Dose response assay for protease inhibitors: trypsin; type: biochemical; conditions: ratio versus Factor XIa
T3 construct: gene PRSS1
T3 sequence (P00760 24-246): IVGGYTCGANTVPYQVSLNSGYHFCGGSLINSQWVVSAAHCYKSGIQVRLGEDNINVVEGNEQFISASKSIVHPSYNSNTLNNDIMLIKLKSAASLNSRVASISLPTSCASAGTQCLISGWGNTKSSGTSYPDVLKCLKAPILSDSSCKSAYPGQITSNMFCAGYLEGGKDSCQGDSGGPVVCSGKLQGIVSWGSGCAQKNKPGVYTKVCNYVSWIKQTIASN
Procedure: as §1, §2

[1] = Caco-2 cell permeability assay (A-B and B-A); type: in vitro ADME; conditions: human; for Papp A→B at 60 min, 10 μM: A-B direction; for Papp B→A at 40 min, 10 μM: B-A direction
Procedure: The following procedure was used to determine the ability of a test compound to cross Caco-2 cells (human intestinal epithelial cells derived from a colorectal adenocarcinoma). The cells were seeded at 1×10^5 cells/cm^2 in 96-well Multiscreen™ plates (Millipore). Permeability assays were performed with the cells at days 21-25 post-seeding. Cells are typically used for 15 consecutive passages in culture.
This assay can be performed in either the apical to basolateral (A−B) or basolateral to apical (B−A) direction. The test compound was prepared at 10 μM in HBSS-MES (pH 6.5) or HBSS-HEPES (pH 7.4) with a final DMSO concentration of 1%. The working solution was then centrifuged and the supernatant added to the donor side. The assay plate was incubated at 37° C. with gentle shaking for 60 min or 40 min for the A−B or B−A assay, respectively. Samples were aliquoted from the donor side at time zero and the end point, and from the receiver side at the end point.
Reference compounds, propranolol (highly permeable), labetalol (moderately permeable), ranitidine (poorly permeable), and colchicine (P-glycoprotein substrate) were included in each assay.
Samples are analyzed by HPLC-MS/MS using selected reaction monitoring. The HPLC system consists of a binary LC pump with autosampler, a C-18 column, and a gradient.
The apparent permeability coefficient (Papp) of the test compound (Equation 2) and its recovery (Equation 3) are calculated as follows: […]
wherein A is the surface area of the cell monolayer (0.11 cm^2), C is concentration of the test compound expressed as peak area, D denotes donor, and R is receiver. “0”, “mid,” and “end” denote time at zero, mid-point, and end of the incubation, respectively. At is the incubation time. V is the volume of the donor or receiver.
This is most likely due to non-specific binding or degradation.

human Factor XIa = human Factor XIa (Homo sapiens, UniProt P03951); test: Factor XIa enzyme inhibition assay (dose response, fluorogenic AMC substrate); type: biochemical; parameters: Enzyme: Factor XIa; conditions: purified enzyme; substrate 50 μM, enzyme 0.25 nM; read-out: hFXIa IC50
Summary of the method: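 Fluorogenic assay in 20 mM Hepes pH 7.4, 150 mM NaCl, 0.02% Tween 20 with 0.25 nM enzyme and 50 μM Glp-Pro-Arg-AMC (final). Fluorescence read every minute for 30 min at 30 °C after serial two-fold compound dilution; IC50 from four-parameter Hill fit of dose-response curves.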

[2] = Aqueous solubility in PBS pH 7.4; type: physicochemical; conditions: phosphate buffered saline, aqueous buffer, kinetic from dmso stock, PBS pH 7.4, room temperature
Procedure: The following procedure was used to determine the aqueous solubility of a test compound in phosphate buffered saline (PBS—NaCl 137 mM, KCl 2.7 mM, Na2HPO4 8.1 mM, KH2PO4 1.5 mM, pH 7.4) in 96-well plate format by HPLC-UV/VIS analysis. The test compound was prepared at 200 μM in PBS from a 10 mM DMSO stock solution. The final DMSO concentration was 2%. The PBS buffer samples were mixed thoroughly followed by incubation at room temperature for 24 h. At the end of the incubation, the PBS buffer samples were centrifuged and supernatants analyzed by HPLC. The aqueous solubility (μM) of the test compound in PBS was determined by comparing the peak area of the principal peak in the calibration standard (200 μM) with the peak area of the corresponding peak in each of the PBS samples. The range of the assay was approximately 0.5 μM to 200 μM. The reference compounds used in each assay were metoprolol, rifampicin, ketoconazole, phenytoin, haloperidol, simvastatin, diethylstilbestrol, and tamoxifen ranking from fully soluble (200 μM) to poorly soluble (<1 μM).

[3] = Plasma protein binding by equilibrium dialysis; type: in vitro ADME; conditions: both sexes, pooled plasma, pH 7.4, human plasma protein binding, read-out: PPB
Procedure: The following procedure was used to determine the plasma protein binding of a test compound in pooled plasma from human (mixed gender) via equilibrium dialysis in a 96-well plate format. The dialysate compartment was loaded with phosphate-buffered saline (pH 7.4) and the sample side was loaded with plasma spiked with the test compound at a concentration of 10 μM. After loading, samples were covered and incubated for 4 hours at 37° C. After incubation, each compartment was sampled, diluted with acetonitrile/buffer and centrifuged. The supernatants were analyzed by HPLC-MS/MS. The analyte peak areas obtained from HPLC-MS/MS analysis of each sample were used to calculate protein binding according to the following equation (Equation 4):
where: AREAp=Peak area of analyte in protein matrix; AREAb=Peak area of analyte in buffer. The amount measured in the plasma compartment included both free and bound drug, while that on the buffer side represented free drug only; the differences were used to calculate the percentage plasma protein bound. Three reference compounds were tested in each assay: acebutolol, quinidine and warfarin.

human Factor XIa, sequence (P03951 388-625 limits assumed): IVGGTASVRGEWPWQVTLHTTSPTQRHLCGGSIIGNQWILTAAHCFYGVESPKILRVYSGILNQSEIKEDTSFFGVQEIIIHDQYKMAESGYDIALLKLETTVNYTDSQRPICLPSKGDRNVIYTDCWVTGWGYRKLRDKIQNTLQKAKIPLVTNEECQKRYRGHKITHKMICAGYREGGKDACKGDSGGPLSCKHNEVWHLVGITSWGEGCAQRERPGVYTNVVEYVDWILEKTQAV
human Factor XIa, sequence (P03951 19-387 partner limits assumed): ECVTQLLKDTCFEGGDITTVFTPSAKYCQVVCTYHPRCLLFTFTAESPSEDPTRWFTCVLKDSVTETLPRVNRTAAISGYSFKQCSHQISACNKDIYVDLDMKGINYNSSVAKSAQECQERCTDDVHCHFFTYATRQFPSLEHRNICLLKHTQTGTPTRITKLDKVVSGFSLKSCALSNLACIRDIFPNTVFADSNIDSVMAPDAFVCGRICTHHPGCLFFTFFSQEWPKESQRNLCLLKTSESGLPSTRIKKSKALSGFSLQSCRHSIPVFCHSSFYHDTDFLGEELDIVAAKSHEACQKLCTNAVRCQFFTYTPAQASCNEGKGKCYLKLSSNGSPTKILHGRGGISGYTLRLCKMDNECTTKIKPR
T1 sequence (P00742 235-488 limits assumed): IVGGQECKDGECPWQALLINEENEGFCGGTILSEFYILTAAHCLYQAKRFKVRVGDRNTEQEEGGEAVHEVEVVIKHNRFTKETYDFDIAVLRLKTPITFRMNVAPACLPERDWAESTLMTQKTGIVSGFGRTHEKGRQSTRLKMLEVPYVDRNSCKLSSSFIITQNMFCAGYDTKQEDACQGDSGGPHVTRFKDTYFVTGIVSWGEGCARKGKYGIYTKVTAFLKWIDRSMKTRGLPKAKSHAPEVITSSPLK
T1 sequence (P00742 41-179 partner limits assumed): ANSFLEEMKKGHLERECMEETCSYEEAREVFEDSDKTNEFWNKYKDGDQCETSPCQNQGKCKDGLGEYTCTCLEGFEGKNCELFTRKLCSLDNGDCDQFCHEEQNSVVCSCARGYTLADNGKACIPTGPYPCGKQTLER

Row | Compound | FXa/FXIa (selectivity ratio) (Factor Xa) | Ratio: Thrombin/FXIa (Thrombin) | Ratio: Trypsin/FXIa (Trypsin) | Papp A→B at 60 min, 10 μM [1] | Papp B→A at 40 min, 10 μM [1] | IC50 (human Factor XIa) | solubility at 24 h [2] | fraction unbound at 4 h, 10 μM [3]
1 | CC[C@@H](NC(=O)N1C(=O)[C@H](Cc2ccnc(N)c2)[C@H]1C(=O)N(C)c1ncccn1)C1CCCCC1 [Compound 37] | I (“I” indicates >500) | I (“I” indicates >500) | G (“G” indicates 1-100) | 11 to 30 ×10⁻⁶ cm/s | 11 to 30 ×10⁻⁶ cm/s | < 0.01 µM | – | –
2 | CC[C@@H](NC(=O)N1C(=O)[C@H](Cc2ccnc(N)c2)[C@H]1C(=O)N(C)c1cccc(OC)c1)C1CCCCC1 [Compound 28] | H (“H” indicates 101-1000) | G (“G” indicates 1-100) | G (“G” indicates 1-100) | 11 to 30 ×10⁻⁶ cm/s | ≤ 10 ×10⁻⁶ cm/s | < 0.01 µM | – | –
3 | CC[C@H](c1cccc(Cl)c1)N(C)C(=O)N1C(=O)[C@H](Cc2ccnc(N)c2)[C@H]1C(=O)N(C)c1ccncc1 [Compound 113] | I (“I” indicates >500) | H (“H” indicates 101-1000) | G (“G” indicates 1-100) | ≤ 10 ×10⁻⁶ cm/s | 11 to 30 ×10⁻⁶ cm/s | < 0.01 µM | – | –
4 | CC[C@@H](NC(=O)N1C(=O)[C@H](Cc2ccnc(N)c2)[C@H]1C(=O)N(CC)c1cccc(Cl)c1)C1CCCCC1 [Compound 32] | H (“H” indicates 101-1000) | G (“G” indicates 1-100) | G (“G” indicates 1-100) | ≤ 10 ×10⁻⁶ cm/s | ≤ 10 ×10⁻⁶ cm/s | < 0.01 µM | – | –
5 | CC[C@@H](NC(=O)N1C(=O)[C@H](Cc2ccnc(N)c2)[C@H]1C(=O)N(C)c1ccccc1)c1cccc(Cl)c1 [Compound 115] | H (“H” indicates 101-1000) | H (“H” indicates 101-1000) | G (“G” indicates 1-100) | 11 to 30 ×10⁻⁶ cm/s | ≤ 10 ×10⁻⁶ cm/s | < 0.01 µM | – | –
6 | CC[C@@H](NC(=O)N1C(=O)[C@H](Cc2ccnc(N)c2)[C@H]1C(=O)N(C)c1ccncc1)c1cccc(Br)c1 [Compound 98] | H (“H” indicates 101-1000) | H (“H” indicates 101-1000) | G (“G” indicates 1-100) | – | – | < 0.01 µM | – | –
7 | CN(C(=O)[C@@H]1[C@@H](Cc2ccncc2)C(=O)N1C(=O)N[C@@H](C1CCCCC1)C1CC1)c1ccncc1 [Compound 64] | H (“H” indicates 101-1000) | H (“H” indicates 101-1000) | H (“H” indicates 101-1000) | – | – | 0.01 to 0.1 µM | – | –
8 | CC[C@@H](NC(=O)N1C(=O)[C@H](Cc2cc(C)nc(N)c2)[C@H]1C(=O)N(C)c1ccccc1)c1ccccc1 [Compound 119] | I (“I” indicates >500) | H (“H” indicates 101-1000) | G (“G” indicates 1-100) | – | – | < 0.01 µM | – | –
9 | CC[C@@H](NC(=O)N1C(=O)[C@H](Cc2ccnc(N)c2)[C@H]1C(=O)N(CC)c1ccccc1)C1CCCCC1 [Compound 31] | I (“I” indicates >500) | H (“H” indicates 101-1000) | G (“G” indicates 1-100) | – | – | < 0.01 µM | – | –
10 | CN(C(=O)[C@@H]1[C@@H](Cc2ccnc(N)c2)C(=O)N1C(=O)N[C@@H](C1CCCCC1)C(F)(F)F)c1cccc(Cl)c1 [Example 11] | – | – | – | ≤ 10 ×10⁻⁶ cm/s | ≤ 10 ×10⁻⁶ cm/s | – | 10 to 100 µM (≈ 5.52 to 55.2 µg/mL) | < 0.05
11 | CC[C@@H](NC(=O)N1C(=O)[C@H](Cc2ccnc(N)c2)[C@H]1C(=O)N(C)c1ccncc1)c1cc(Cl)ccc1Cl [Compound 112] | H (“H” indicates 101-1000) | H (“H” indicates 101-1000) | G (“G” indicates 1-100) | – | – | < 0.01 µM | – | –
